In patent US11807649B2, “Fused tetracyclic quinazoline derivatives as inhibitors of ErbB2” (EnLiven Therapeutics, Inc., priority 2021, dated 2023):

Legend:
Type in all cases: cell-based
[1] = molecular target: phosphorylated ERBB2 (pERBB2) (Homo sapiens (Human), UniProt P04626); assay: Detection of phosphorylated ERBB2 (pERBB2) by ELISA in BT-474 cells; settings: four hours incubation with compound
Experimental: BT-474 cells were seeded into a 96-well at 2.0*10^4 cells/100 μl/well. Compounds were dissolved and serially diluted in DMSO. The compounds were then were added, mixed, and incubated for four hours at 37° C., 5% CO2. […] Following the four hour incubation with compounds, cell lysates were prepared. Plates were centrifuged for 5 min at 3000 RPM, and supernatant was removed from each well. Cells were washed 3 times by resuspension in 150 μl PBS, followed by centrifugation and removal of the supernatant, as above. 100 μl of cell lysis buffer (Boston BioProducts, cat #BP-115D) supplied with 1× complete ULTRA cocktail inhibitor (Thermo ScientificTM, cat #78443) was then added to the washed cells. Cells were incubated with lysis buffer for 1 hour at 4° C., and then stored at -80° C. Enzyme-linked immunosorbent assays (ELISA) were performed to measure phosphorylated ERBB2 levels. […] The next day, plates were washed with PBS+0.05% Tween20 (PBST). 150 μl of 5% BSA blocking solution was added for 1 hour at room temperature, with shaking. Plates were washed with PB ST. Cell lysates were thawed and 100 μl of lysate was added to the ELISA plate. The plates were incubated for 2 hours at room temperature, with shaking. ELISA plates were then washed with PBST and 100 μl of an HRP-labeled detection antibody that binds phosphorylated tyrosine (R&D Systems, cat #841913) was added to each well. Plates were incubated for 1 hour at room temperature, with shaking. Plates were then washed with PBST, and 100 μl TMB substrate solution (R&D Systems, cat #DY999) was added. Plate were incubated in the dark for 20 minutes at room temperature. 50 μl of Stop solution (R&D Systems, cat #DY994) (50 μl) was added to each well and mixed. […] The remaining kinase activity by calculated using the following formula: % Relative activity=100×([…]). The low and high control values (“LC” and “HC”) were generated from lysate from wells without cells or with cells treated with 0.1% DMSO, respectively.

Ba/F3 ERBB2 YVMA = assay: Cell viability assay (CellTiter Glo), Ba/F3 cells engineered to express ERBB2 YVMA; settings: Mus musculus, BaF3, 72 h, Ba/F3 cells expressing human ERBB2 YVMA mutant; 72 hours; cell viability, CellTiter Glo; read-out: Ba/F3 ERBB2 YVMA, IC50
[2] = molecular target: phosphorylated EGFR (pEGFR) (Homo sapiens (Human), UniProt P00533); assay: Detection of phosphorylated EGFR (pEGFR) in EGF-stimulated A431 cells (AlphaLISA); settings: A431 cells (10% FBS), 4 hours incubation, then EGF 30 ng/mL for 10 minutes
Experimental: […] were performed to measure phosphorylated EGFR levels using A431 cells (10% FBS). A431 (1.0*10^4 cells/40 μl/well) cells were seeded in 384 well. Compounds were dissolved in DMSO, serially diluted in DMSO and then were added, mixed, and incubated for 4 hours at 37° C., 5% CO2. Following the 4-hours incubation, cells were stimulated for 10 minutes with EGF (Invitrogen, cat #PHG0311) at a final concentration of 30 ng/mL in the incubator. The media was aspirated and cells were lysed in […] lysis buffer with protease and phosphatase inhibitors (PerkinElmer, cat #ALSU-PEGFR-A50K). The plates were placed on a shaker for 5 minutes and then incubated for 30 min at 4° C. for complete lysis. The lysate was transferred to an Optiplate (Perkin Elmer, cat #6007290).
Acceptor mix (PerkinElmer, cat #ALSU-PEGFR-A50K) was prepared just before use and 5 μL was dispensed to all the wells, followed by a 1.5-2 h incubation at room temperature in dark. The donor mix (PerkinElmer, cat #ALSU-PEGFR-A50K) was prepared under low light conditions prior to use and […] of donor mix was added to all the wells under subdued lighting or green filters. The plates were placed on a shaker for 5 min, sealed, and incubated overnight at room temperature in dark. Plates were read on the Envision (PerkinElmer) using standard AlphaLISA settings.
The percentage of inhibition on EGFR phosphorylation was calculated following equation: % Inhibition=100×(LumHC−LumSample)/(LumHC−LumLC). The low and high controls (LC/HC) are generated from lysate from wells with cells treated with DMSO or […] Staurosporine (BioAustralis, cat #BIA-S1086), […]. IC50 values were calculated by fitting the Curve using XLfit (v5.3.1.3), equation 201: Y=Bottom+(Top−Bottom)/(1+10^((Log IC50−X)*HillSlope)).

Sequence of phosphorylated EGFR (pEGFR) (P00533 25-1210): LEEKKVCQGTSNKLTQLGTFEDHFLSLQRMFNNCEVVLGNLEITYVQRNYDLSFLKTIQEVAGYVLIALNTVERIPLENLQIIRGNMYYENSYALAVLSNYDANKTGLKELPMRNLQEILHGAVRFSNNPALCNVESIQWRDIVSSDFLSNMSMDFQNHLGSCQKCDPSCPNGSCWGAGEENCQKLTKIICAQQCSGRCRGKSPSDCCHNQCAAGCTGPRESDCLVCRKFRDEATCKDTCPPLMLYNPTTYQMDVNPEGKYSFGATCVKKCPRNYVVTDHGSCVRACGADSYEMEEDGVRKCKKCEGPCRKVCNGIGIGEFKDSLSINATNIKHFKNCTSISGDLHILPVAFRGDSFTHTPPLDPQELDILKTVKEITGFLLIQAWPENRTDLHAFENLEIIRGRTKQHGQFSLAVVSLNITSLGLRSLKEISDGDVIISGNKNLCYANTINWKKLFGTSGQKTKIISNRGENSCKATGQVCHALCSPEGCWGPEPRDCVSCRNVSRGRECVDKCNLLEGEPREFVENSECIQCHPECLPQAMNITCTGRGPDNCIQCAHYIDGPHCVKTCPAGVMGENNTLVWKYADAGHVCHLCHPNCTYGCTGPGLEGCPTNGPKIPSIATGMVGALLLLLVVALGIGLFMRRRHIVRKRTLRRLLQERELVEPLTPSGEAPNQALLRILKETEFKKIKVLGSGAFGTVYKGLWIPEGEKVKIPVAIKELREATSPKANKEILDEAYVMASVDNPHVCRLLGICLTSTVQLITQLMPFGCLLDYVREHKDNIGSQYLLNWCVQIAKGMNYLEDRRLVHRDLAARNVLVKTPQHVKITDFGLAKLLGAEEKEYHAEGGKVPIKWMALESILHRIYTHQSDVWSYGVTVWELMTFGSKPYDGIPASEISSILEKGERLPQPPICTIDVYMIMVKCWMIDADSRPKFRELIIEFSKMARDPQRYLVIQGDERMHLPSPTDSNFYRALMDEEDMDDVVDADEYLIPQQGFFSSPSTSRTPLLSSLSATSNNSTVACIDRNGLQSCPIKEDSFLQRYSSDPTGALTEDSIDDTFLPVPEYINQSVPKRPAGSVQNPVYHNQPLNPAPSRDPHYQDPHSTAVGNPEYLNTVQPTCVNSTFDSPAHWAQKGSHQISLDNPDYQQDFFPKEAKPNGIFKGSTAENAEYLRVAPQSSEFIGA
Sequence of phosphorylated ERBB2 (pERBB2) (P04626 23-1255): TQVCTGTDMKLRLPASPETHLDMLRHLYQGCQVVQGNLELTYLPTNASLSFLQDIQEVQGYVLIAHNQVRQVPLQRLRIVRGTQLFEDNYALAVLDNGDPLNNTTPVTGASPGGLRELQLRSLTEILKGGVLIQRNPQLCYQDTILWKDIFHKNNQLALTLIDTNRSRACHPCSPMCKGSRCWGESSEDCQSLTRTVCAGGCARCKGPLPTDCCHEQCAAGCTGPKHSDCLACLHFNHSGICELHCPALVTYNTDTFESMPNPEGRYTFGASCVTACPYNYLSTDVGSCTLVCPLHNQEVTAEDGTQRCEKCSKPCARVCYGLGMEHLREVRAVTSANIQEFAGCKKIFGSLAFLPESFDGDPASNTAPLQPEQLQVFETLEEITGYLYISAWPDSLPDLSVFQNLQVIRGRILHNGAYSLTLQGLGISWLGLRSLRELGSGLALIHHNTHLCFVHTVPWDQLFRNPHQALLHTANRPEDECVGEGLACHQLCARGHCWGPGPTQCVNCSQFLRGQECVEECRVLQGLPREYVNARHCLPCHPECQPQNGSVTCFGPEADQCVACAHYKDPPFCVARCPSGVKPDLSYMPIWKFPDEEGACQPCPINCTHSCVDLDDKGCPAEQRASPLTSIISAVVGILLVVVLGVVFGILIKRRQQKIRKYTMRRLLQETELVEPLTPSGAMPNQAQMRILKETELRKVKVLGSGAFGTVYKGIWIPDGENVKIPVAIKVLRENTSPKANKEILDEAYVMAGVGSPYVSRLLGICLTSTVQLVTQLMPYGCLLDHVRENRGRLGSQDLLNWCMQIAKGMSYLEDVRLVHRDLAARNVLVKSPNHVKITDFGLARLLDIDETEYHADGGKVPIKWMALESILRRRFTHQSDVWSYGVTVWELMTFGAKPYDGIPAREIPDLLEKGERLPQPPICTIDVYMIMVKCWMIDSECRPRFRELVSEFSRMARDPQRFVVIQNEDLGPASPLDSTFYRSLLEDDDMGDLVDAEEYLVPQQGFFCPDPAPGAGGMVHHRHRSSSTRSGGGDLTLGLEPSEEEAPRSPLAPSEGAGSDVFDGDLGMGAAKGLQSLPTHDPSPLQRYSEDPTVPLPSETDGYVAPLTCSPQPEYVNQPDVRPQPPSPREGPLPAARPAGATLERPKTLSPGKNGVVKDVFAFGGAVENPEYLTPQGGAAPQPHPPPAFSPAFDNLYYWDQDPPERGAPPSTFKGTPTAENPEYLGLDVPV

## [2H]C([2H])([2H])N(C([2H])([2H])[2H])C([2H])([2H])/C=C/C(=O)N1CCN2C[C@H]1COc1cc3ncnc(Nc4cc(C)c(Oc5ccn6ncnc6c5)cc4F)c3nc12 [Compound 59, (E)-1-((10S)-4-((4-([1,2,4]triazolo[1,5-a]pyridin-7-yloxy)-2-fluoro-5-methylphenyl)amino)-7,8,10,11-tetrahydro-9H-6,10-methanopyrimido[4′,5′:5,6]pyrido[3,2-b][1,4,7]oxadiazonin-9-yl)-4-(bis(methyl-d3)amino)but-2-en-1-one-4,4-d2]
[1]
  IC50: 9 nM
Ba/F3 ERBB2 YVMA
  IC50: 6.5 nM
[2]
  IC50: 1380 nM
